Test results reported in patent publication US20240122946A9, “METHODS AND COMPOSITIONS FOR TREATING 25-HYDROXYVITAMIN D DEFICIENCY” (Board of Supervisors of Louisiana State University and …, priority 2019, published 2024).
Values belong to the compound of their own block, whether it stands above or below them.

Legend:
C2C12 myotubes = experiment: LC, TNF-α and 1,25(OH)2VD treatment of myotubes (GCLC-KD, PGC-1α KD); format: cell-based, mouse
Description: (§1) Cell culture and treatment: FL83B mouse hepatocytes (ATCC®, Manassas, Va.) were cultured and maintained in F-12K complete medium. Mouse C2C12 myoblasts were cultured at 37° C. in an atmosphere of 5% CO2 in growth medium (GM) consisting of Dulbecco's modified Eagle's medium (DMEM) supplemented with heat-inactivated 10% fetal bovine serum and antibiotics (penicillin and streptomycin). […] The control siRNA, a scrambled nonspecific RNA duplex that shares no sequence homology with any of the genes, was used as a negative control.
(§2) Cells were transiently transfected with 0-100 nM siRNA complex using Lipofectamine™2000 transfection reagent (Invitrogen, Carlsbad, Calif.). […] TNF-α (0-250 μg/mL) was exposed for 6 h to differentiated myotubes.
(§3) Analysis of mRNA expression using quantitative polymerase chain reaction: Total RNA was extracted from cells or tissue using the TRIzol reagent (Life Technologies) following the manufacturer's instructions. The quality and quantity of the extracted RNA were determined on a NanoDrop spectrophotometer (Thermo Scientific). First-strand complementary DNA (cDNA) synthesis was performed using a commercially available High Capacity RNA-To-cDNA kit (Life Technologies) in a final reaction volume of 20 μL. Amplification of cDNA was performed on a 7900HT Real Time polymerase chain reaction (PCR) system (Applied Biosystems). PCR conditions were 2 min at 50° C., 10 min at 95° C., 40 cycles of 95° C. for 15 s, and then 60° C. for 60 s. Glyceraldehyde-3-phosphate dehydrogenase (GAPDH) was used as a housekeeping gene to normalize threshold cycle (CT) values.
(§4) Levels of GSH in plasma, tissues, and cultured cells were determined using HPLC. This assay determines total GSH status. Cell viability was determined using the Alamar Blue method (Alamar Biosciences, Sacramento, Calif.). Oxidative stress was assessed by the quantification of protein carbonyls and MDA using Protein Carbonyl Colorimetric and TBARS Assay Kits, respectively (Cayman Chemical, Ann Arbor, Mich.). Measurements of HbA1c, Complete Blood Count, glucose, and calcium were done at the clinical chemistry laboratories of LSUHSC-Shreveport. Due to limited amount of blood collected from each mouse, we borrowed diluents from the clinical laboratory and diluted the blood before taking it to the clinical laboratory, which reduced the amount of blood required for clinical tests. All chemicals were purchased from Sigma Chemical Co. (St. Louis, Mo.) unless otherwise mentioned.

[1] = tested on: mice maintained on a VD-deficient HFD; experiment: Supplementation of mice on VD-deficient HFD: blood biomarkers; format: in vivo, mouse; conditions: VD 67 IU/kg BW, vs OO (vehicle) control
Description: Effect of supplementation with VD along with LC on plasma levels of GSH, 25(OH)VD, and IR, and on GSH and VD regulatory genes in liver and on GSH and glucose metabolism genes in muscle: Beginning at 5 weeks of age, male C57BL/6J mice were fed and maintained on a VD-deficient HFD and water ad libitum for 16 weeks. Mice were gavaged daily for the last 8 weeks with saline, olive oil (OO), LC (5 mg/kg BW), VD (67 IU/kg BW), or LC+VD to investigate whether co-supplementation with GSH precursor has a better effect on blood levels of 25(OH)VD compared with levels achieved using VD alone. VD was dissolved in OO and one group of mice was also gavaged with OO (vehicle) alone.
Animal studies. Male C57BL/6J mice (5 weeks old, 20-24 g) were purchased from The Jackson Laboratory and acclimatized in the institutional animal house for 1 week. Mice were divided into various groups by computer-generated randomization and then housed and labeled in individual cages. They were fasted overnight and then weighed. Blood glucose was assessed by tail prick using an Accu-Chek glucometer (Boehringer Mannheim Corp., Indianapolis, Ind.). BW and blood glucose were monitored weekly. Control animals were fed a normal diet (lower in fat), while animals in the HFD group were fed HFD for 16 weeks. For studies with VD-deficient animals, the mice were maintained on a VD-deficient HFD for 16 weeks.
In addition, two groups of mice maintained on the VD-deficient HFD were also simultaneously supplemented by oral gavage with either water or the same dose of the vehicle used for dissolving cholecalciferol (OO) (FIG. 5). The animals were maintained under standard housing conditions at 22° C. 2° C. with 12/12-h light/dark cycles. Normal diet, HFD, and VD-deficient HFD were purchased from The Jackson Laboratory. The amount of food intake was monitored at 12 and 16 weeks into the treatment period to assess consumption. At the end of 16 weeks, the animals were fasted overnight and then euthanized for analysis by exposure to isoflurane (Webster Veterinary Supply, Inc., Devens, Mass.). Blood was collected via heart puncture with a 19^1/2-gauge needle into heparinized Vacutainer tubes. Plasma was isolated after centrifuging the blood in a 4° C. centrifuge at 3000 rpm for 10 min. The livers were perfused with cold saline to free them of residual blood. Liver and gastrocnemius muscle were collected immediately, weighed, quickly diced, and frozen in liquid nitrogen at −80° C.
Dose justification for LC and vitamin D: While lc can be taken as a supplement, it is also formed in the body from methionine. An adult ingests about 500 mg LC from dietary sources, assuming that an average protein intake is 90 g/day and that LC is about 0.6% of total protein. Similarly, taking into account daily dietary intake and diet composition, mice consume 3-5 mg LC/kg BW. The LC/methionine content of protein varies with the source of the protein. The LC dose used in our studies, 5 mg/kg BW, is theoretically a supplementation onefold to twofold that of the LC ordinarily consumed by the mice, which could be considered both modest and safe. […]
25(OH)VD, 1,25(OH)2VD, VDBP, GSH, TNF-α, PTH, insulin, glucose, protein carbonyl, and MDA assays: Plasma levels of 25(OH) vitamin D were determined using an ELISA kit (Calbiotech, Spring Valley, Calif.) and 1,25(OH)2 vitamin D using another ELISA kit (My BioSource, San Diego, Calif.). Plasma VDBP quantification was carried out using a kit purchased from ALPCO Diagnostics (Salem, N.H.). […]

FL83B mouse hepatocytes = experiment: LC and cholecalciferol treatment of hepatocytes (GCLC-KD, VDR-KD); format: cell-based
Description: as §1, §2, §3, §4

[2] = oral gavage 8 weeks, LC 5 mg/kg BW
[3] = LC alone, compared with control VDR-KD cells

VDR/PGC-1α/GLUT-4 gene expression (C2C12 myotubes; exogenous TNF-α, 6 h): downregulates
Compound: TNF-α

Compound: C=C1/C(=C\C=C2/CCC[C@]3(C)[C@@H]([C@H](C)CCCC(C)(C)O)CC[C@@H]23)C[C@@H](O)C[C@@H]1O [1,25(OH)2VD, 1alpha,25-dihydroxyvitamin D3]
upregulation of NRF2 and GLUT-4 (C2C12 myotubes; PGC-1α KD myotubes): absent

Compound: C=C1CC[C@H](O)C/C1=C/C=C1\CCC[C@]2(C)[C@@H]([C@H](C)CCCC(C)C)CC[C@@H]12 [VD, cholecalciferol]
IR (HOMA-IR) in blood [1, 2]: did not show effect
blood HbA1c [1, 2]: did not show effect
blood level of TNF-α [1, 2]: did not show effect
blood level of VDBP ([1]; oral gavage 8 weeks): did not show effect
blood level of GSH ([1]; oral gavage last 8 weeks of 16 weeks VD-deficient HFD, LC 5 mg/kg BW): did not show effect
effect on VD regulatory genes (mRNA) (FL83B mouse hepatocytes; cholecalciferol 10 nM, 22 h): stimulatory effect

CYP27A1 gene upregulation (FL83B mouse hepatocytes; [3]): not
VDBP gene expression (FL83B mouse hepatocytes; [3]): upregulation
oxidation of both proteins and lipids (FL83B mouse hepatocytes; LC, GSH-normal and GSH-deficient hepatocytes): reduced
GSH levels (C2C12 myotubes; LC 300 μM, 6 h): increases
TNF-α levels (C2C12 myotubes; LC 300 μM, 6 h, GCLC-normal and GCLC-KD myotubes): decrease
Compound: N[C@@H](CS)C(=O)O [LC, l-cysteine]
